Patent publication US20120034613A1, “Apparatus and Method for Testing Relationships Between Gene Expression and Physical Appearance of Skin” (NSE Products, Inc., priority 2010, published 2012)

Tested on: EpidermFT™ Skin Model (EFT-400) full thickness skin cultures
Experiment: Affymetrix GeneChip HG U133 Plus 2.0 microarray global gene expression, agent-exposed vs untreated skin cultures
Format: cell-based, human
Details: Salicin 0.5%, 24 hr
[1] = 219471_at C13orf18 /// LOC728970

OCc1ccccc1O[C@@H]1O[C@H](CO)[C@@H](O)[C@H](O)[C@H]1O [Salicin, 2-(Hydroxymethyl)phenyl β-D-glucospyranoside]
Direction (215997_s_at CUL4B): up
Fold change (215997_s_at CUL4B): 2.138
Direction (217202_s_at GLUL): up
Fold change (217202_s_at GLUL): 2.106
Direction (217739_s_at NAMPT): up
Fold change (217739_s_at NAMPT): 2.155
Direction (218574_s_at LMCD1): up
Fold change (218574_s_at LMCD1): 2.123
Direction (218665_at FZD4): up
Fold change (218665_at FZD4): 2.078
Direction (218810_at ZC3H12A): up
Fold change (218810_at ZC3H12A): 2.117
Direction (219054_at C5orf23): up
Fold change (219054_at C5orf23): 2.096
Direction (219283_at C1GALT1C1): up
Fold change (219283_at C1GALT1C1): 2.107
Direction (219284_at HSPBAP1): up
Fold change (219284_at HSPBAP1): 2.08
Direction [1]: up
Fold change [1]: 2.12
Direction (219558_at ATP13A3): up
Fold change (219558_at ATP13A3): 2.138
Direction (219774_at CCDC93): up
Fold change (219774_at CCDC93): 2.13
Direction (219790_s_at NPR3): up
Fold change (219790_s_at NPR3): 2.115
Direction (220253_s_at LRP12): up
Fold change (220253_s_at LRP12): 2.096
Direction (221586_s_at E2F5): up
Fold change (221586_s_at E2F5): 2.079
Direction (221881_s_at CLIC4): up
Fold change (221881_s_at CLIC4): 2.109
Direction (223758_s_at GTF2H2): up
Fold change (223758_s_at GTF2H2): 2.138
Direction (224461_s_at AIFM2): up
Fold change (224461_s_at AIFM2): 2.132
Direction (224583_at COTL1): up
Fold change (224583_at COTL1): 2.077
Direction (224978_s_at USP36): up
Fold change (224978_s_at USP36): 2.122
Direction (225034_at ST3GAL1): up
Fold change (225034_at ST3GAL1): 2.099
Direction (225185_at MRAS): up
Fold change (225185_at MRAS): 2.155
Direction (225212_at SLC25A25): up
Fold change (225212_at SLC25A25): 2.108
Direction (225436_at FAM108C1): up
Fold change (225436_at FAM108C1): 2.142
Direction (225590_at SH3RF1): up
Fold change (225590_at SH3RF1): 2.104
Direction (225871_at STEAP2): up
Fold change (225871_at STEAP2): 2.153
Direction (226136_at GLIPR1): up
Fold change (226136_at GLIPR1): 2.104
Direction (226142_at GLIPR1): up
Fold change (226142_at GLIPR1): 2.129
Direction (226160_at H6PD): up
Fold change (226160_at H6PD): 2.103
Direction (226731_at PELO): up
Fold change (226731_at PELO): 2.098
Direction (226800_at EFCAB7): up
Fold change (226800_at EFCAB7): 2.156
Direction (228082_at ASAM): up
Fold change (228082_at ASAM): 2.108
Direction (228702_at FLJ43663): up
Fold change (228702_at FLJ43663): 2.156
Direction (228949_at GPR177): up
Fold change (228949_at GPR177): 2.105
Direction (228950_s_at GPR177): up
Fold change (228950_s_at GPR177): 2.126
Direction (229194_at PCGF5): up
Fold change (229194_at PCGF5): 2.107
Direction (229306_at FAM148B): up
Fold change (229306_at FAM148B): 2.129
Direction (229414_at PITPNC1): up
Fold change (229414_at PITPNC1): 2.108
Direction (229553_at PGM2L1): up
Fold change (229553_at PGM2L1): 2.113
Direction (229623_at FLJ12993): up
Fold change (229623_at FLJ12993): 2.132
Direction (230291_s_at NFIB): up
Fold change (230291_s_at NFIB): 2.15
Direction (232004_at HNRNPR): up
Fold change (232004_at HNRNPR): 2.126
Direction (232267_at GPR133): up
Fold change (232267_at GPR133): 2.135
Direction (232311_at B2M): up
Fold change (232311_at B2M): 2.121
Direction (235019_at CPM): up
Fold change (235019_at CPM): 2.117
Direction (235182_at ISM1): up
Fold change (235182_at ISM1): 2.138
Direction (235311_at FKBP14): up
Fold change (235311_at FKBP14): 2.153
Direction (236154_at QKI): up
Fold change (236154_at QKI): 2.103
Direction (238893_at LOC338758): up
Fold change (238893_at LOC338758): 2.075
Direction (239108_at FAR2): up
Fold change (239108_at FAR2): 2.081
Direction (239415_at MAP9): up
Fold change (239415_at MAP9): 2.126
Direction (240395_at LOC100128727): up
Fold change (240395_at LOC100128727): 2.078
Direction (241986_at BMPER): up
Fold change (241986_at BMPER): 2.136
Direction (243631_at LOC727815): up
Fold change (243631_at LOC727815): 2.087
Direction (243797_at STK17B): up
Fold change (243797_at STK17B): 2.09
Direction (244752_at ZNF438): up
Fold change (244752_at ZNF438): 2.083
Direction (1553962_s_at RHOB): up
Fold change (1553962_s_at RHOB): 2.094
